Results published in publication PMC10517971, “An inverse agonist of orphan receptor GPR61 acts by a G protein-competitive allosteric mechanism” (Nature Communications, 2023).

Tests used:
Human PED9A1 = Human PED9A1 (Homo sapiens, UniProt O76083); experiment: Phosphodiesterase Assay (SPA); assay type: biochemical
hERG = hERG (Homo sapiens, UniProt Q12809); experiment: hERG Binding Assay (fluorescence polarization, Cy3B N-desmethyl dofetilide); set-up: expressed in transfected cells; membrane homogenate used
hERG, sequence (Q12809 whole entry): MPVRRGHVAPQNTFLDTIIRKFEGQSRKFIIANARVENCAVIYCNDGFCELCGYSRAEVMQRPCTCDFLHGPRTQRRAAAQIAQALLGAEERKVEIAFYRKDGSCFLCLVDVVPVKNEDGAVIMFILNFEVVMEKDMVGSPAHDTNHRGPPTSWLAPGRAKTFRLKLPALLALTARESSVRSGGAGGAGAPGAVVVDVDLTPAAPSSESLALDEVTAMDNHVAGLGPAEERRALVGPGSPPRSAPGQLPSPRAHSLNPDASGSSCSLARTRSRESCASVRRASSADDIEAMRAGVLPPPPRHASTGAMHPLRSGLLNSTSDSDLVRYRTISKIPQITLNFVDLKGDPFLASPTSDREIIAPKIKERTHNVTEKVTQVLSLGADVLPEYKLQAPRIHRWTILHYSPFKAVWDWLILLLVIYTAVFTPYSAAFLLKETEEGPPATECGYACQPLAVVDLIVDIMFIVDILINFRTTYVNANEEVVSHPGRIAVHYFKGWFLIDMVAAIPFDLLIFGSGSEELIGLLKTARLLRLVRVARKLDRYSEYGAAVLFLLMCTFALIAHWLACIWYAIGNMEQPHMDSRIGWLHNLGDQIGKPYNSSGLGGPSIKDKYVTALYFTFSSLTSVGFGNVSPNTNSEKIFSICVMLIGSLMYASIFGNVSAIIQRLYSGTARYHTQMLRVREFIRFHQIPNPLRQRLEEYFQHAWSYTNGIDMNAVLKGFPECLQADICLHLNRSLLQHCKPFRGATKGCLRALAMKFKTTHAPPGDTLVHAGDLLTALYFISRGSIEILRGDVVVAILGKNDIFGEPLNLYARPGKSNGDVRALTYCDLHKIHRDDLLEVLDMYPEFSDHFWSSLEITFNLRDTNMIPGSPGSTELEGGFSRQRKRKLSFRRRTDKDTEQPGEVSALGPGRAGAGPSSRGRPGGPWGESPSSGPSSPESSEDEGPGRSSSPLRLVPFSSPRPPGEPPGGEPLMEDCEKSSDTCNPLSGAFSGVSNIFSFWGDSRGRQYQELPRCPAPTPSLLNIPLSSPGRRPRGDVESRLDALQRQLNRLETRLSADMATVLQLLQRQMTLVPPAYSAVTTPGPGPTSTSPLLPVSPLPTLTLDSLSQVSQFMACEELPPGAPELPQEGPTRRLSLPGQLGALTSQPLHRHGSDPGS
Protocol: 67 black 384 well flat -bottomed polystyrene plates. Compound/vehicle or standard (5 µL) were added
68 to wells followed by His -tagged BRD4 (10 µL; 40 nM final concentration in assay). Following a
69 15 min incubation at room temperature a propri etary Cy5 -labelled probe molecule (5 µL; 2 nM
70 final concentration in assay) was added. Following, an additional 16 h incubation at room
71 temperature fluorescence polarization measurements were made using an Envision plate reader
72 (Perkin Elmer, Waltham, MA, USA) and mP values were used for analysis .
73 Acetylcholinesterase As say
74 The assay described is based on Ellmans method, in which thiocholine produced by the action of
75 acetylcholinesterase forms a yellow color with 5,5'- dithiobis(2- nitrobenzoic acid). The intensity
76 of the product color, measured at 405 nm, is proportionate to the enzyme activity in the sample.
77 To each well of a clear 96 polystyrene plate 90 µL enzyme solution (1mU/well) or phosphate
78 buffered saline (PBS) and 10 µL compound/standard or vehicle was added. The plate was […]
81 read at the 20 min time point. […]
100 at room temperature for 16 h. Fluorescence polarization measurements were made using an
101 Envision plate reader (Perkin Elmer, Waltham, M A, USA) and mP values were us ed for analysis.
102 Binding Ki values were determined using the Cheng- Prusoff equation (Ki = IC50/(1+L/Kd)), where […]

Human PED9A1, sequence (O76083 whole entry): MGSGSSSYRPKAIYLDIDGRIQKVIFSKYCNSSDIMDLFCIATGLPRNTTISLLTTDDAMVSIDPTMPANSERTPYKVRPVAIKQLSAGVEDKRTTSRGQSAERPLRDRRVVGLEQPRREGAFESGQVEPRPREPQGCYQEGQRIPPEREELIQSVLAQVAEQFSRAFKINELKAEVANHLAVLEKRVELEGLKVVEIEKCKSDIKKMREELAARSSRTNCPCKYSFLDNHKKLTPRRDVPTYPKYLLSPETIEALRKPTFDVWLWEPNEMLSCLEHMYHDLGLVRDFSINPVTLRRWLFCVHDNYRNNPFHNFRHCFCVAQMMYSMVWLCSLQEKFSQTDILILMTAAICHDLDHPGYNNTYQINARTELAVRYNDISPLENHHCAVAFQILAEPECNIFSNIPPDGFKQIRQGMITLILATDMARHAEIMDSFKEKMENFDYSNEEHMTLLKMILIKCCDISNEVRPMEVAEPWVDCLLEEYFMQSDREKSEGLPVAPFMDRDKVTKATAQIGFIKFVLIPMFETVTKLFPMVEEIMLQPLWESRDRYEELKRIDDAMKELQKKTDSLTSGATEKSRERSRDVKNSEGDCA

CCOc1cc(C)nc(N(CCOC)S(=O)(=O)c2ccc(NCc3c(F)cncc3F)nc2OC)n1 [Compound 1]
IC50 (Human PED9A1): > 200 µM | Ki (hERG): > 80 µM
